We go through twelve compounds from ChEMBL document CHEMBL1201862, “PubChem BioAssay data set” (2004).

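Protocol summary: plate cells (96-well), add compound at 5 concentrations, incubate 48 h, interpolate endpoints linearly. GI50 = concentration required for 50% inhibition of growth.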 Calls of active or inactive are those of the source. No stated cut-off is given here; in the data, active = GI50 up to about 1.1 µM and inactive = higher.

Among the test systems are TK-10; SN12C; SF-295; HCT-15; KM12; NCI-H226; HOP-62; HOP-92; Malme-3M; COLO 205; LXFL 529; HL-60; LOX IMVI; RPMI-8226; A549; NCI-H460; A498.
What all share (assay): NCI anticancer screen, dose series, 48 h

In the case of `COC(=O)C(C(=O)C(=O)Nc1ccccc1C(C)=O)c1nc2ccc(Cl)cc2nc1O` (configuration not stated), the GI50 with TK-10 is > 100 µM (inactive); in the assay on SN12C it was > 100 µM (inactive); with SF-295, > 100 µM (inactive); with HCT-15, greater than 100 µM; in the assay on KM12 it was > 100 µM (inactive); in the assay with NCI-H226, 78.3 µM (inactive). Also, the GI50 in the assay with HOP-62, with HOP-92, in the assay with Malme-3M, in the assay on COLO 205, in the assay on LXFL 529 and in the assay on HL-60 was > 100 µM (inactive) each time. Besides, the GI50 in the assay on LOX IMVI, in the assay on RPMI-8226, in the assay with A549, in the assay with NCI-H460 and in the assay with A498 was > 100 µM (inactive) throughout.

In the case of `O=c1[nH]c2ccccc2cc1C(Cl)=C(Cl)Cl`, the GI50 in the assay on TK-10, with SN12C, in the assay with SF-295, in the assay on KM12, in the assay on NCI-H226 and in the assay with HOP-62 was > 100 µM (inactive) in each case. Besides, the GI50 with HOP-92 was > 100 µM (inactive); in the assay with Malme-3M, > 100 µM (inactive); in the assay with COLO 205, > 100 µM (inactive); in the assay with LXFL 529, > 100 µM (inactive); in the assay with HL-60 it was 53.7 µM (inactive); with LOX IMVI, > 100 µM (inactive). For the same compound, the GI50 in the assay with RPMI-8226, with A549, with NCI-H460 and in the assay with A498 was > 100 µM (inactive) each time.

On to `CCOc1ccccc1/N=N/c1c(-c2ccccc2)nn(C(=O)CC(=O)Nc2cccc(Cl)c2)c1-c1ccccc1`, for which the GI50 in the assay with TK-10 is > 100 µM (inactive); with SN12C, 40.4 µM (inactive); in the assay on SF-295, 50.4 µM (inactive); with KM12, 31.8 µM (inactive); with NCI-H226, 64.1 µM (inactive); in the assay with HOP-62, 72.9 µM (inactive). Moreover, the GI50 was 50.7 µM (inactive) in the assay on HOP-92; > 100 µM (inactive) in the assay with Malme-3M; > 100 µM (inactive) in the assay on COLO 205; 39.5 µM (inactive) with LXFL 529; 58.6 µM (inactive) in the assay with HL-60; 35.7 µM (inactive) in the assay on LOX IMVI. Besides, the GI50 with RPMI-8226 is 46.9 µM (inactive); with A549, 54 µM (inactive); in the assay with NCI-H460, 44.6 µM (inactive).

Consider `CCN(CC)CCOc1ccc(CCc2cc(OC)c(OC)c(OC)c2)cc1`, for which the GI50 with TK-10 was 30.5 µM (inactive); in the assay with SN12C, > 100 µM (inactive); in the assay on SF-295, 18.4 µM (inactive); with HCT-15, 30.7 µM; with KM12 it was 35.3 µM (inactive); in the assay with NCI-H226 it was 45 µM (inactive). Moreover, the GI50 in the assay on HOP-62 was 22.6 µM (inactive); in the assay on HOP-92 it was 20.6 µM (inactive); in the assay on Malme-3M, 43.9 µM (inactive); in the assay on COLO 205, 17.3 µM (inactive); in the assay on LXFL 529, 35.1 µM (inactive); in the assay with HL-60, 18.9 µM (inactive). Also, the GI50 was 13.9 µM (inactive) with LOX IMVI; 16.8 µM (inactive) with RPMI-8226; 47.3 µM (inactive) in the assay with A549; 38.5 µM (inactive) with NCI-H460; 22 µM (inactive) in the assay with A498.

On to `Cc1ccc(N2C(=O)C3C=CC(n4[nH]c(=O)n(Cc5ccccc5)c4=O)CC3C2=O)cc1` (configuration not stated), for which the GI50 in the assay on TK-10 was > 100 µM (inactive); in the assay with SN12C, > 100 µM (inactive); in the assay on SF-295 it was > 100 µM (inactive); with HCT-15, greater than 100 µM; in the assay on KM12, > 100 µM (inactive); in the assay with NCI-H226, > 100 µM (inactive). In addition, the GI50 in the assay on HOP-62, in the assay with HOP-92, in the assay with Malme-3M, in the assay with COLO 205, in the assay on LXFL 529 and in the assay on HL-60 was > 100 µM (inactive) throughout. Further, the GI50 in the assay on LOX IMVI, with RPMI-8226, in the assay with A549, in the assay on NCI-H460 and in the assay with A498 was > 100 µM (inactive) in each case.

On to `Oc1nc(-c2ccccc2)cc(-c2ccccc2O)n1`, for which the GI50 with TK-10 is > 100 µM (inactive); in the assay on SN12C, 95.5 µM (inactive); in the assay with SF-295, > 100 µM (inactive); in the assay with HCT-15, 83.2 µM; with KM12, > 100 µM (inactive); with NCI-H226 it was > 100 µM (inactive). Also, the GI50 with HOP-62 is 30.5 µM (inactive); with HOP-92, 84.5 µM (inactive); with Malme-3M it was > 100 µM (inactive); in the assay on COLO 205, > 100 µM (inactive); in the assay on LXFL 529 it was 50.4 µM (inactive); with HL-60, 79.1 µM (inactive). The GI50 was 51.5 µM (inactive) with LOX IMVI; 83.9 µM (inactive) in the assay on RPMI-8226; 83.4 µM (inactive) in the assay with A549; 87.5 µM (inactive) with NCI-H460; > 100 µM (inactive) with A498.

With `Oc1ccc2occ3c2c1CCC3`, the GI50 was > 100 µM (inactive) with TK-10; > 100 µM (inactive) with SN12C; > 100 µM (inactive) in the assay on SF-295; greater than 100 µM with HCT-15; > 100 µM (inactive) in the assay with HOP-62; 29.2 µM (inactive) in the assay on HOP-92. In addition, the GI50 with COLO 205 is > 100 µM (inactive); in the assay with LXFL 529, > 100 µM (inactive); in the assay on HL-60, 44.4 µM (inactive); with LOX IMVI, > 100 µM (inactive); in the assay with RPMI-8226, 98.4 µM (inactive); in the assay on A549, > 100 µM (inactive). For the same compound, the GI50 in the assay on NCI-H460 and in the assay on A498 was > 100 µM (inactive) in each case.

For the compound `C=CCN1/C(=C2\SC(=S)N(c3ccc(C)cc3)C2=O)Sc2c1ncn(C)c2=O`, the GI50 with TK-10 is > 100 µM (inactive); in the assay with SN12C it was > 100 µM (inactive); in the assay on SF-295, 90.8 µM (inactive); in the assay on HCT-15, greater than 100 µM; with KM12, > 100 µM (inactive); in the assay with NCI-H226 it was 78.5 µM (inactive). Besides, the GI50 in the assay with HOP-62 is 69.2 µM (inactive); in the assay on HOP-92 it was > 100 µM (inactive); with COLO 205, 96.8 µM (inactive); with LXFL 529 it was 59.7 µM (inactive); in the assay with HL-60 it was 83.4 µM (inactive); with LOX IMVI, > 100 µM (inactive). Also, the GI50 with RPMI-8226 is > 100 µM (inactive); in the assay on A549, > 100 µM (inactive); with NCI-H460, > 100 µM (inactive); in the assay with A498, 51.1 µM (inactive).

As to `NC(=O)c1c([N+](=O)[O-])cc(C(F)(F)F)cc1[N+](=O)[O-]`, the GI50 with TK-10 is > 100 µM (inactive); with SN12C it was 52.4 µM (inactive); in the assay with SF-295, > 100 µM (inactive); in the assay on KM12, 44 µM (inactive); in the assay on NCI-H226, > 100 µM (inactive); with HOP-62 it was > 100 µM (inactive). Further, the GI50 was > 100 µM (inactive) with HOP-92; 24.4 µM (inactive) with Malme-3M; 26.1 µM (inactive) with COLO 205; > 100 µM (inactive) with LXFL 529; 18 µM (inactive) in the assay on HL-60; 51.2 µM (inactive) in the assay with LOX IMVI. The GI50 in the assay with RPMI-8226 is > 100 µM (inactive); with A549, 99.5 µM (inactive); in the assay with NCI-H460 it was 47.4 µM (inactive); in the assay with A498, > 100 µM (inactive).

Take `CCN(CC)C(c1ccc(N(C)C)cc1)C(c1ccc(N(C)C)cc1)N(CC)CC` (configuration not stated): the GI50 in the assay with TK-10 is > 72.9 µM (inactive); in the assay on SN12C, > 72.9 µM (inactive); in the assay on SF-295 it was 39.2 µM (inactive); in the assay on HCT-15, 30.2 µM; with KM12 it was 22.9 µM (inactive); in the assay with NCI-H226, 27.3 µM (inactive). In addition, the GI50 is 61.5 µM (inactive) in the assay with HOP-62; 13.2 µM (inactive) with HOP-92; 17 µM (inactive) in the assay on Malme-3M; 43.3 µM (inactive) with COLO 205; 30.3 µM (inactive) in the assay on LXFL 529; 14.8 µM (inactive) in the assay on HL-60. In addition, the GI50 in the assay on RPMI-8226 is 21.9 µM (inactive); with A549 it was > 72.9 µM (inactive); in the assay with NCI-H460 it was 69.2 µM (inactive); with A498, > 72.9 µM (inactive).

In the case of `COc1ccc(/C(=C/n2ccnc2)C(=O)c2ccc(OC)c(OC)c2)cc1`, the GI50 with TK-10 was > 100 µM (inactive); in the assay with SN12C it was > 100 µM (inactive); with HCT-15, greater than 100 µM; in the assay on KM12, > 100 µM (inactive); in the assay on NCI-H226, > 100 µM (inactive); with HOP-62, > 100 µM (inactive). Moreover, the GI50 in the assay with HOP-92, with Malme-3M, in the assay on COLO 205, in the assay on LXFL 529, in the assay with HL-60 and in the assay on LOX IMVI was > 100 µM (inactive) throughout. Moreover, the GI50 in the assay with RPMI-8226, in the assay on A549, with NCI-H460 and with A498 was > 100 µM (inactive) in each case.

On to `C(CCC[Te][Te]CCCCCCOC1CCCCO1)CCOC1CCCCO1` (configuration not stated), for which the GI50 is 30.1 µM (inactive) in the assay with TK-10; 13.7 µM (inactive) in the assay on SN12C; 15.9 µM (inactive) in the assay with SF-295; 19.2 µM in the assay with HCT-15; 13.7 µM (inactive) with KM12; 15.1 µM (inactive) in the assay with HOP-62. For the same compound, the GI50 is 12.2 µM (inactive) in the assay with HOP-92; 6.44 µM (inactive) with Malme-3M; 15.7 µM (inactive) with COLO 205; 9.02 µM (inactive) with LXFL 529; 8.69 µM (inactive) with HL-60; 13.6 µM (inactive) in the assay on LOX IMVI. For the same compound, the GI50 with A549 was 14.5 µM (inactive); with NCI-H460 it was 14.8 µM (inactive); in the assay with A498, 17.6 µM (inactive).
